The values below come from patent US20220033407A1, “N-(pyridin-2-ylsulfonyl)cyclopropanecarboxamide Derivatives and their Use in the Treatment of Disease” (NOVARTIS AG, priority 2018, published 2022).

One assay deals with T1, delF508-CFTR-HRP (Homo sapiens, UniProt P13569, DEL508-508).
T1 construct: expressed in transfected cells
Put plainly: Measurement of delF508-CFTR-HRP surface expression in CFBE41o- cells (HRP luminescence).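 For DelF508-CFTR-HRP Amax %: percent efficacy relative to a reference CFTR corrector compound.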 Format: cell-based. Particulars: for Emax: CFBE41o-, read-out: DelF508-CFTR-HRP Amax %; for EC50: mean of at least two replicates. The method, boiled down: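 Stably transfected CFBE41o- cells carrying HRP in the fourth extracellular loop of delF508-CFTR, induced with 500 ng/mL doxycycline for 48 h, then compound-treated 24 h at 37° C (10-point, 3-fold, top 10 μM). Surface HRP detected by luminescent substrate; EC50 from logistic fit, triplicates, normalized to lowest-concentration median.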

In a further assay the target is T2, delF508-CFTR (Homo sapiens, UniProt P13569, DEL508-508).
T2 construct: functional activity of the CFTR channel (Chloride ion transport) in patient derived primary human bronchial epithelial cells; host or cells: patient-derived primary human bronchial epithelial cells (HBECs), delF508-CFTR
T2 sequence (P13569 with tags, fused parts or gaps DEL508-508): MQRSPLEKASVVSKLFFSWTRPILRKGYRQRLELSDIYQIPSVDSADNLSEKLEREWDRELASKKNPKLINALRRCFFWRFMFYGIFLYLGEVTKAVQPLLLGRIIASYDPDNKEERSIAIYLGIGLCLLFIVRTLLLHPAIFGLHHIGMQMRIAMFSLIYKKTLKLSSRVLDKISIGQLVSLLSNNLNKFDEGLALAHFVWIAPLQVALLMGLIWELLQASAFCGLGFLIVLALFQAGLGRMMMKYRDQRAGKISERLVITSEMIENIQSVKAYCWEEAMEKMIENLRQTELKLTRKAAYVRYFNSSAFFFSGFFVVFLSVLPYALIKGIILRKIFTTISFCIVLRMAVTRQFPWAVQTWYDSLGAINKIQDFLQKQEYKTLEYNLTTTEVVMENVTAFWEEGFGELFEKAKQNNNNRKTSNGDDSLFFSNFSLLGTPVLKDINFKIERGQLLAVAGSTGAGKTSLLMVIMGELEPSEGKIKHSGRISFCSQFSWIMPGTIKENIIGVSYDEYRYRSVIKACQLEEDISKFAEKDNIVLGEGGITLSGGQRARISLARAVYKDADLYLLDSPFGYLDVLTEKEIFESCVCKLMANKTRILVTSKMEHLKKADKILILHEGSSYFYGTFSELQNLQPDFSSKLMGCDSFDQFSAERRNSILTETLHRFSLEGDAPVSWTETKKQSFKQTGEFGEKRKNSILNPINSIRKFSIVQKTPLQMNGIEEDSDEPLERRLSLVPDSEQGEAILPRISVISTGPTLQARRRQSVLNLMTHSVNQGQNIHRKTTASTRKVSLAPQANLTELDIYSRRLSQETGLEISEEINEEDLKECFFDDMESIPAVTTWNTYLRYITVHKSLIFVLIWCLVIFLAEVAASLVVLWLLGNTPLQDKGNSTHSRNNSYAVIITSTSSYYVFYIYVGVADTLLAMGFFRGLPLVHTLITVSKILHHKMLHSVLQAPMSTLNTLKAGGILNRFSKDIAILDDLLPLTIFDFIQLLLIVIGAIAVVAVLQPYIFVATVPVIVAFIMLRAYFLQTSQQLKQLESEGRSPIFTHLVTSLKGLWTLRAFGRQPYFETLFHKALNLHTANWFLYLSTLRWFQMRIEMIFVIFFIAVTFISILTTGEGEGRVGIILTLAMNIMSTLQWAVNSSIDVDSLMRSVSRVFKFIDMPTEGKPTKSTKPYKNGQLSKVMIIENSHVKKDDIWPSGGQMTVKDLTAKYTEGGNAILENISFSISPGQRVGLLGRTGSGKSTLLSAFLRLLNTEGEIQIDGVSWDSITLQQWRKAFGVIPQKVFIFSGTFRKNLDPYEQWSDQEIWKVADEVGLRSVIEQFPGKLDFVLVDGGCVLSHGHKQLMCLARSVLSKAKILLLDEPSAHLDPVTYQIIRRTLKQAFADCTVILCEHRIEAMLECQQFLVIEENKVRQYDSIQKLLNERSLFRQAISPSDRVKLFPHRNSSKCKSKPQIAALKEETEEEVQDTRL
Put plainly: delF508-CFTR functional activity in primary human bronchial epithelial cells (HBECs), Multi-Transepithelial Clamp Circuit (MTECC-24) assay, equivalent short circuit current. The assay is classed as cell-based. Particulars: primary CF HBECs; for MTECC24 CFHBEC-Amax %: relative to reference combination 2 μM 3-(6-(1-(2,2-difluorobenzo[d][1,3]dioxol-5-yl)cyclopropane-1-carboxamido)-3-methylpyridin-2-yl)benzoic acid (24 h) + 0.5 μM N-(2,4-di-tert-butyl-5-hydroxyphenyl)-4-oxo-1,4-dihydroquinoline-3-carboxamide; for EC50: test compound added 24 h before assay, potentiator (S)-3-amino-6-methoxy-N-(3,3,3-trifluoro-2-hydroxy-2-methylpropyl)-5-(trifluoromethyl)picolinamide present at assay, mean of at least two replicates, read-out: MTECC24 CFHBEC-EC50. Put shortly:
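Patient-derived delF508 HBECs, grown at air-liquid interface about two weeks, were corrected with compound basolaterally for 24 h. Compound was then re-added apically and basolaterally in HEPES pH7.4 assay medium, with sequential modulators including forskolin and the picolinamide potentiator. Ieq was recorded, normalised to 0.1% DMSO wells, and EC50 fitted from 10-point curves.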

T1 sequence (P13569 with tags, fused parts or gaps DEL508-508): as above

With `Cc1ccc(OCCC2CCCCC2)c(OC2(C(=O)NS(=O)(=O)c3cccc(N4CC[C@H](O)C4)n3)CC2)c1` [Example 6-11, (S)-1-(2-(2-cyclohexylethoxy)-5-methylphenoxy)-N-((6-(3-hydroxypyrrolidin-1-yl)pyridin-2-yl)sulfonyl)cyclopropanecarboxamide], at delF508-CFTR-HRP, the Emax amounted to 311% and the EC50 came out at 1180 nM. On delF508-CFTR, the “MTECC24 CFHBEC-Amax %” value is 113.6% and the concentration giving a half-maximal response (EC50) was 261 nM.
For the compound `Cc1ccc(C2CCCCC2)c(OC2(C(=O)NS(=O)(=O)c3cccc(N[C@H]4C[C@@H](O)C4)n3)CC2)c1` [Example 2-36, 1-(2-Cyclohexyl-5-methylphenoxy)-N-((6-((cis-3-hydroxycyclobutyl)amino)pyridin-2-yl)sulfonyl)cyclopropane-1-carboxamide], at delF508-CFTR-HRP, the Emax stood at 432% and a half-maximal response (EC50) required 2090 nM. Moreover, on delF508-CFTR, the “MTECC24 CFHBEC-Amax %” value worked out at 152% and the EC50 came out at 44 nM.
Turning to `CC1(C)CCN(c2ccc(Cl)cc2OC2(C(=O)NS(=O)(=O)c3cccc(N4CCC(O)(C(C)(C)C)CC4)n3)CC2)CC1` [Example 10-6, N-((6-(4-(tert-butyl)-4-hydroxypiperidin-1-yl)pyridin-2-yl)sulfonyl)-1-(5-chloro-2-(4,4-dimethylpiperidin-1-yl)phenoxy)cyclopropanecarboxamide], on delF508-CFTR-HRP, the Emax came to 462% and the response was half-maximal at 750 nM (EC50). Besides, at delF508-CFTR, the “MTECC24 CFHBEC-Amax %” value was 103.9% and the EC50 was found to be 80 nM.
Taken in the same sequence, the figures for `Cc1ccc(C2CCCCC2)c(OC2(C(=O)NS(=O)(=O)c3cccc(N4CCNC(C(F)(F)F)C4)n3)CC2)c1` (stereo not drawn) [Example 2-37, 1-(2-Cyclohexyl-5-methylphenoxy)-N-((6-(3-(trifluoromethyl)piperazin-1-yl)pyridin-2-yl)sulfonyl)cyclopropanecarboxamide] were 306%, 1350 nM, 103% and 3 nM.
`Cc1ccc(C2(C)CC2)c(OC2(C(=O)NS(=O)(=O)c3cccc(NC[C@H](C)O)n3)CC2)c1` [Example 4-16, (S)-N-((6-((2-Hydroxypropyl)amino)pyridin-2-yl)sulfonyl)-1-(5-methyl-2-(1-methylcyclopropyl)phenoxy)cyclopropane-1-carboxamide]: on delF508-CFTR-HRP, the Emax came to 113% and the EC50 was 3460 nM. In addition, on delF508-CFTR, the “MTECC24 CFHBEC-Amax %” value was 48% and the EC50 was 9 nM.
For the compound `Cc1ccc(CC(C)C)c(OC2(C(=O)NS(=O)(=O)c3cccc(N4CCC[C@@H](CO)C4)n3)CC2)c1` [Example 4-8, (R)-N-((6-(3-(hydroxymethyl)piperidin-1-yl)pyridin-2-yl)sulfonyl)-1-(2-isobutyl-5-methylphenoxy)cyclopropane-1-carboxamide], at delF508-CFTR-HRP, the Emax was 388% and the half-maximal effective concentration (EC50) was determined as 2200 nM. Moreover, on delF508-CFTR, the “MTECC24 CFHBEC-Amax %” value turned out to be 80% and the half-maximal effective concentration (EC50) turned out to be 11 nM.
Turning to `Cc1ccc(CC(C)C)c(OC2(C(=O)NS(=O)(=O)c3cccc(NC[C@H](C)O)n3)CC2)c1` [Example 4-9, (S)-N-((6-((2-Hydroxypropyl)amino)pyridin-2-yl)sulfonyl)-1-(2-isobutyl-5-methylphenoxy)cyclopropane-1-carboxamide], at delF508-CFTR-HRP, the Emax was 477% and the EC50 turned out to be 3460 nM. Moreover, on delF508-CFTR, the “MTECC24 CFHBEC-Amax %” value came out at 70% and the concentration giving a half-maximal response (EC50) is 23 nM.
Turning to `O=C(NS(=O)(=O)c1cccc(N2CC[C@H](O)C2)n1)C1(Oc2cc(Cl)ccc2N2CC3CCCC3C2)CC1` (stereo partly drawn) [Example 9-24, 1-(5-Chloro-2-(hexahydrocyclopenta[c]pyrrol-2(1H)-yl)phenoxy)-N-((6-((S)-3-hydroxypyrrolidin-1-yl)pyridin-2-yl)sulfonyl)cyclopropanecarboxamide], on delF508-CFTR-HRP, the Emax came to 641% and the EC50 was determined as 2170 nM. Moreover, at delF508-CFTR, the “MTECC24 CFHBEC-Amax %” value is listed as 135.8% and the concentration giving a half-maximal response (EC50) was 389 nM.
Regarding `CC(C)Cc1ccc(Cl)cc1OC1(C(=O)NS(=O)(=O)c2cccc(NC[C@H](C)O)n2)CC1` [Example 4-11, (S)-1-(5-Chloro-2-isobutylphenoxy)-N-((6-((2-hydroxypropyl)amino)pyridin-2-yl)sulfonyl)cyclopropane-1-carboxamide], at delF508-CFTR-HRP, the Emax was 115% and the concentration giving a half-maximal response (EC50) came to 3100 nM. On delF508-CFTR, the “MTECC24 CFHBEC-Amax %” value is recorded as 66% and the concentration giving a half-maximal response (EC50) stood at 35 nM.
`Cc1ccc(C2CCCCC2)c(OC2(C(=O)NS(=O)(=O)c3cccc(N4CC(C)(NC(=O)OC(C)(C)C)C4)n3)CC2)c1` [Example 2-50, Tert-butyl (1-(6-(N-(1-(2-cyclohexyl-5-methylphenoxy)cyclopropane-1-carbonyl)sulfamoyl)pyridin-2-yl)-3-methylazetidin-3-yl)carbamate]: on delF508-CFTR-HRP, the Emax is 628% and it took 1270 nM to reach a half-maximal effect (EC50). Further, at delF508-CFTR, the “MTECC24 CFHBEC-Amax %” value was found to be 93% and the EC50 was determined as 4 nM.
Take `O=C(NS(=O)(=O)c1cccc(N2CC[C@H](O)C2)n1)C1(Oc2cc(C(F)(F)F)ccc2-c2cccc(C(F)(F)F)c2)CC1` [Example 5-5, (S)-1-((3′,4-Bis(trifluoromethyl)-[1,1′-biphenyl]-2-yl)oxy)-N-((6-(3-hydroxypyrrolidin-1-yl)pyridin-2-yl)sulfonyl)cyclopropane-1-carboxamide]: on delF508-CFTR-HRP, the Emax amounted to 242% and a half-maximal effect (EC50) was put at 2050 nM. Also, at delF508-CFTR, the “MTECC24 CFHBEC-Amax %” value was found to be 94% and the EC50 was 71 nM.
Consider `Cc1ccc(S(=O)(=O)N2CC3(CCN3c3cccc(S(=O)(=O)NC(=O)C4(Oc5cc(C)ccc5C5CCCCC5)CC4)n3)C2)cc1` [Example 2-56, 1-(2-Cyclohexyl-5-methylphenoxy)-N-((6-(6-tosyl-1,6-diazaspiro[3.3]heptan-1-yl)pyridin-2-yl)sulfonyl)cyclopropane-1-carboxamide], for which, on delF508-CFTR-HRP, the Emax amounted to 381% and a half-maximal response (EC50) required 2510 nM. Moreover, on delF508-CFTR, the “MTECC24 CFHBEC-Amax %” value amounted to 83% and the EC50 came out at 40 nM.
Take `Cc1ccc(C2CCCCC2)c(OC2(C(=O)NS(=O)(=O)c3cccc(N4CCC(C)(NC(=O)OC(C)(C)C)C4)n3)CC2)c1` (stereo not drawn) [Example 2-24, Tert-butyl (1-(6-(N-(1-(2-cyclohexyl-5-methylphenoxy)cyclopropanecarbonyl)sulfamoyl)pyridin-2-yl)-3-methylpyrrollidin-3-yl)carbamate]: at delF508-CFTR-HRP, the Emax came out at 591% and the response was half-maximal at 1270 nM (EC50). Moreover, at delF508-CFTR, the “MTECC24 CFHBEC-Amax %” value is given as 62% and the half-maximal effective concentration (EC50) was 5 nM.
Taken in the same sequence, the figures for `COC1CN(c2cccc(S(=O)(=O)NC(=O)C3(Oc4cc(C)ccc4C4CCCCC4)CC3)n2)C1` [Example 2-18, 1-(2-Cyclohexyl-5-methylphenoxy)-N-((6-(3-methoxyazetidin-1-yl)pyridin-2-yl)sulfonyl)cyclopropanecarboxamide] were 597%, 1580 nM, 91% and 21 nM.
As for `Cc1ccc(C2CCCCC2)c(OC2(C(=O)NS(=O)(=O)c3cccc(N4CCOC[C@H]4C)n3)CC2)c1` [Example 2-26, (R)-1-(2-Cyclohexyl-5-methylphenoxy)-N-((6-(3-methylmorpholino)pyridin-2-yl)sulfonyl)cyclopropanecarboxamide], at delF508-CFTR-HRP, the Emax came out at 500% and a half-maximal effect (EC50) was put at 1410 nM. Also, at delF508-CFTR, the “MTECC24 CFHBEC-Amax %” value was determined as 89% and the EC50 was found to be 6 nM.
Consider `COC(=O)C1(C)CCN(c2cccc(S(=O)(=O)NC(=O)C3(Oc4cc(C)ccc4C4CCCCC4)CC3)n2)CC1` [Example 2-3, Methyl 1-(6-(N-(1-(2-cyclohexyl-5-methylphenoxy)cyclopropanecarbonyl)sulfamoyl)pyridin-2-yl)-4-methylpiperidine-4-carboxylate], for which, on delF508-CFTR-HRP, the Emax amounted to 337% and it took 460 nM to reach a half-maximal effect (EC50). Besides, on delF508-CFTR, the “MTECC24 CFHBEC-Amax %” value was found to be 79% and the half-maximal effective concentration (EC50) came to 5 nM.
With `CC1(O)CN(c2cccc(S(=O)(=O)NC(=O)C3(Oc4cc(Cl)ccc4C4CC5(CCC5)C4)CC3)n2)C1` [Example 7-10, 1-(5-Chloro-2-(spiro[3.3]heptan-2-yl)phenoxy)-N-((6-(3-hydroxy-3-methylazetidin-1-yl)pyridin-2-yl)sulfonyl)cyclopropane-1-carboxamide], at delF508-CFTR-HRP, the Emax turned out to be 367% and the half-maximal effective concentration (EC50) was found to be 1670 nM. In addition, on delF508-CFTR, the “MTECC24 CFHBEC-Amax %” value amounted to 115.5% and the EC50 was 356 nM.
Turning to `Cc1ccc(C2CCCCC2)c(OC2(C(=O)NS(=O)(=O)c3cccc(N4CCNC(=O)C4)n3)CC2)c1` [Example 2-33, 1-(2-Cyclohexyl-5-methylphenoxy)-N-((6-(3-oxopiperazin-1-yl)pyridin-2-yl)sulfonyl)cyclopropanecarboxamide], on delF508-CFTR-HRP, the Emax is 114% and a half-maximal response (EC50) required 3960 nM. Further, on delF508-CFTR, the “MTECC24 CFHBEC-Amax %” value came to 46% and the half-maximal effective concentration (EC50) was found to be 66 nM.

A word on the EC50: it is the concentration needed to bring the measured effect to its halfway point.
